The source of these data is patent US4956461A, “Desamino-aminopterin and -methotrexate” (priority 1989, dated 1990).

The subject of data set [1] is WI-L2 cells. The experiment in a line: Growth inhibition of cultured human WI-L2 tumor cells. It counts as cell-based.
Data set [2] has as its system carboxypeptidase G1. Description: Glutamate hydrolysis by carboxypeptidase G1 (HPLC). In kind it is biochemical. Particulars: for disappearance of starting material (glutamate hydrolysis): room temperature, 1M NaOAc, ZnCl2, in less than 15 min.
Data set [3] relates to L1210 cells. The experiment in a line: Growth inhibition of cultured murine L1210 tumor cells. It counts as cell-based.
The test system of data set [4] is L1210 cells. The experiment in a line: Reversal test: effect of thymidine and hypoxanthine on growth of L1210 cells in presence of compound. It counts as cell-based, murine. As to conditions: Mus musculus. The protocol: Thymidine (dThd) and hypoxanthine (Hx) were added at concentrations of 10 μM and 100 μM, respectively.
Data set [5] can be described thus: Stability in solution (base, pH 7.4 buffer, NH4HCO3 eluates). It counts as physicochemical. As to conditions: for time stable in pH 7.4 phosphate buffer / half-life: room temperature, pH 7.4 phosphate buffer; for half-life: read-out: t1/2 (UV changes suggestive of pyrimidine ring cleavage) (converted); for stability of 3% NH4HCO3 eluates: overnight in the refrigerator. The source says: Critically important to the successful purification of the end products of Examples 3 and 4 on diethylamino-ethylcellulose was that the fractions were freeze dried as soon as possible after collection.

The target of data set [6] is T1, dihydrofolate reductase (DHFR) (Homo sapiens, UniProt P00374).
T1 construct: endogenous in cells; host or cells: MTX-resistant WI-L2 human leukemic lymphoblasts
T1 sequence (P00374 1-187): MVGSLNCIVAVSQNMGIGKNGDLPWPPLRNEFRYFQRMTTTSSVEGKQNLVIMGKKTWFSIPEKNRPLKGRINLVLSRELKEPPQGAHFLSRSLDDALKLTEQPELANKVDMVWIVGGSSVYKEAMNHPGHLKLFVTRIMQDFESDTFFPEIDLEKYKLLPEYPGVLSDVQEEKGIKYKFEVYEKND
Description: Inhibition of purified dihydrofolate reductase (DHFR) from human leukemic lymphoblasts (WI-L2 cells). In kind it is biochemical. The text has this: DHFR was isolated from MTXresistant WIL2 cells and purified by affinity

Data set [7] concerns E. coli dihydrofolate reductase (DHFR), aspartic acid replaced with serine. As to conditions: cited from earlier work.
For data set [8], the system named is DHFR, threonine residue replaced by valine. Particulars: threonine to valine mutant; cited from earlier work.
[9] abbreviates: WIL2, read-out: Cells IC50, WI-L2.
The mark [10] stands for this setting: Mus musculus, L1210, read-out: Cells IC50, L1210.
Setting [11] is: Mus musculus, L1210, read-out: IC50, growth of cultured tumor cells.
Where [12] appears, read: WIL2, read-out: IC50, growth of cultured tumor cells.
The mark [13] stands for this setting: + 10 μM thymidine and 100 μM hypoxanthine, read-out: IC50, + dThd and Hx.
Where [14] appears, read: + 10 μM thymidine, read-out: IC50, + dThd.
[15] abbreviates: + 100 μM hypoxanthine, read-out: IC50, + Hx.
Setting [16] is: read-out: IC50, standard medium.

The structures appear in SMILES notation. Read-outs that look alike come from different tables or passages of the source. Where only a bound is given, the exact number is not on record here.

In general, IC50 refers to the concentration that inhibits the measured activity by half. On to `Nc1nc(N)c2nc(CNc3ccc(C(=O)N[C@@H](CCC(=O)O)C(=O)O)cc3)cnc2n1` [AMT, aminopterin], for which the IC50 in data set [1] (setting [9]) was 7.1 nM.

For `CN(Cc1cnc2nc(N)nc(N)c2n1)c1ccc(C(=O)N[C@H](CCC(=O)O)C(=O)O)cc1` [D MTX, reference compound], in data set [2] (identical conditions), the “cleavage by carboxypeptidase G1” value was “resistant”.

Take `Nc1ncnc2ncc(CNc3ccc(C(=O)N[C@@H](CCC(=O)O)C(=O)O)cc3)nc12` [Example 1, 2-desamino-aminopterin]: the IC50 in data set [3] (setting [10]) is 82 nM; in data set [3] (setting [11]), 30 to 80 nM; in data set [1] (setting [9]), 81 nM; in data set [1] (setting [12]) it was 30 to 80 nM; in data set [4] (setting [13]), > 100000 nM; in data set [4] (setting [14]), 160 nM. The IC50 in data set [4] (setting [15]) was determined as 260 nM; in data set [4] (setting [16]) it was 82 nM. The “stability in 0.1 N NaOH by HPLC” value in data set [5] was “rapid appearance of new peaks indicating a chemical reaction”. In addition, in data set [5], the “time stable in pH 7.4 phosphate buffer” value is recorded as “at least 24 h”. Besides, in data set [5], the half-life was ~72 h. Further, the “disappearance of starting material (glutamate hydrolysis)” value in data set [2] is reported as > 95%.

As for `Cc1nc(N)c2nc(CNc3ccc(C(=O)N[C@@H](CCC(=O)O)C(=O)O)cc3)cnc2n1` [Example 2, 2-desamino-2-methyl-aminopterin], the IC50 was > 50000 nM in data set [6]; 42 nM in data set [3] (setting [10]); 30 to 80 nM in data set [3] (setting [11]); 28 nM in data set [1] (setting [9]); 30 to 80 nM in data set [1] (setting [12]); > 100000 nM in data set [4] (setting [13]). Also, the IC50 amounted to 130 nM in data set [4] (setting [14]), 160 nM in data set [4] (setting [15]) and 42 nM in data set [4] (setting [16]). The “stability in 0.1 N NaOH by HPLC” value in data set [5] was “rapid appearance of new peaks indicating a chemical reaction”. In addition, the “time stable in pH 7.4 phosphate buffer” value in data set [5] was “at least 24 h”. Also, the half-life in data set [5] was ~72 h. Besides, the “disappearance of starting material (glutamate hydrolysis)” value in data set [2] is > 95%.

`CN(Cc1cnc2ncnc(N)c2n1)c1ccc(C(=O)N[C@@H](CCC(=O)O)C(=O)O)cc1` [Example 3] came in with an IC50 in data set [6] of 5800 nM. In addition, the “stability of 3% NH4HCO3 eluates” value in data set [5] is “extensive decomposition occurred”.

Consider `Cc1nc(N)c2nc(CN(C)c3ccc(C(=O)N[C@@H](CCC(=O)O)C(=O)O)cc3)cnc2n1` [Example 4], for which the IC50 in data set [6] (purified DHFR from MTX-resistant WI-L2 cells, read-out: DHFR IC50) was > 20000 nM. Besides, the “stability of 3% NH4HCO3 eluates” value in data set [5] is on record as “extensive decomposition occurred”.

Consider `CN(Cc1cnc2nc(N)nc(N)c2n1)c1ccc(C(=O)N[C@@H](CCC(=O)O)C(=O)O)cc1` [MTX, methotrexate], for which the IC50 in data set [3] (Mus musculus, L1210; read-out: Cells IC50, L1210) stood at 9 nM; in data set [3] (Mus musculus; one figure stated for WI-L2 and L1210 together; here L1210; read-out: IC50, growth of cultured tumor cells) it was 10 nM; in data set [1] (WIL2, one figure stated for WI-L2 and L1210 together, here WI-L2, read-out: IC50, growth of cultured tumor cells), 10 nM; in data set [1] (setting [9]), 13 nM. In data set [7] (aspartic acid to serine mutant of E. coli DHFR, equilibrium dialysis), the “increase in the KD for MTX binding” value is 3000 fold. Further, the “decrease in the binding energy” value in data set [7] (aspartic acid to serine mutant) was 4.4 kcal/mol. The “decrease in the KD for MTX” value in data set [8] is on record as 25 fold.
